Key:
[1] = tested on: MM.1S cells; experiment: HLA class I ligand presentation upon carfilzomib treatment on MM.1S cells (LC-MS/MS); type: cell-based, human; parameters: key to modulation upon carfilzomib-treatment 24 #1 / modulation upon carfilzomib-treatment 24 #2 / modulation upon carfilzomib-treatment 24 #3 / modulation upon carfilzomib-treatment 48 #1 / modulation upon carfilzomib-treatment 48 #2 / modulation upon carfilzomib-treatment 48 #3: −1: significantly down-modulated; 0: not signifcant/not detected; 1: significantly up-modulated; conditions: MM.1S cells
Method: (§1) HLA class I and II molecules were isolated using standard immunoaffinity purification as described using the pan-HLA class I specific mAb W6/32, the pan-HLA class II specific mAb T039 and the HLA-DR specific mAB L243 (produced in house).
(§2) HLA ligand extracts were analyzed in 5 technical replicates as described previously. In brief, peptide samples were separated by nanoflow HPLC (RSLCnano, ThermoFisher) using a 50 μm×25 cm PepMap RSLC column (Thermo Fisher) and a gradient ranging from 2.4 to 32.0% acetonitrile over the course of 90 min. Eluting peptides were analyzed in an online coupled LTQ Orbitrap XL mass spectrometer (Thermo Fisher) using a top 5 CID (collision induced dissociation) fragmentation method.
(§3) Data processing was performed as described previously. In brief, the Mascot search engine (Mascot 2.2.04; Matrix Science, London, UK) was implemented to search the human proteome as comprised in the Swiss-Prot database (20,279 reviewed protein sequences, September 2013) without enzymatic restriction. Potential mutated HLA ligands were searched implementing a database containing the human proteome concatenated with proteins containing single amino acid variants (SAVs) listed in the COSMIC database (http://cancer.sanger.ac.uk/cosmic/). Only recurrent SAVs described in 2 or more samples of hematological origin were included. Oxidized methionine was allowed as a dynamic modification. The false discovery rate was estimated using the Percolator algorithm and set to 5%. Peptide lengths were limited to 8-12 amino acids for HLA class I and 12-25 amino acids for HLA class II. Protein inference was disabled, allowing for multiple protein annotations of peptides. HLA annotation was performed using SYFPEITHI [46] or an extended in-house database. Experimental validation of peptide identifications and HLA annotations was performed by mass spectrometric and functional characterization of synthetic peptides for a subset of peptides.
(§4) The inventors quantitatively assessed HLA class I ligand presentation during proteasome inhibitor therapy. Observed was a considerable plasticity of the HLA class I ligandome after treatment with carfilzomib with 17.9±1.1% of MM.1S ligands and 11.2±0.7% of U266 ligands (mean of three biological replicates ±s.d.) showing significant modulation (fold-change ≥4, Po0.01 after Benjamini-Hochberg correction) at t24 h compared with mock-treated controls. Briefly, Cultured MCLs (MM.1S and U266) and primary myeloma samples were incubated with carfilzomib (100 nM, Kyprolis®, available, e.g., from Onyx Pharmaceuticals, Inc.) as an example for a proteasome inhibitor for a 1-h period, followed by three washes in PBS (Gibco) and recultured for additional 24 or 48 h. Controls were incubated with vehicle control (glucose 5%) for 1 h, followed by identical washing and incubation for 24 or 48 h. Experiments were conducted in three biological replicates where indicated.

[2] = tested on: U266 cells; experiment: HLA class I ligand presentation upon carfilzomib treatment on U266 cells (LC-MS/MS); type: cell-based, human; parameters: key to modulation upon carfilzomib-treatment 24 #1 / modulation upon carfilzomib-treatment 24 #2 / modulation upon carfilzomib-treatment 24 #3 / modulation upon carfilzomib-treatment 48 #1 / modulation upon carfilzomib-treatment 48 #2 / modulation upon carfilzomib-treatment 48 #3: −1: significantly down-modulated; 0: not signifcant/not detected; 1: significantly up-modulated; conditions: U266 cells, vs mock-treated controls; for modulation upon carfilzomib-treatment 24 #1 / modulation upon carfilzomib-treatment 24 #2 / modulation upon carfilzomib-treatment 24 #3: 24 h after carfilzomib treatment (100 nM, 1 h); for modulation upon carfilzomib-treatment 24 #1 / modulation upon carfilzomib-treatment 48 #1: biological replicate #1; for modulation upon carfilzomib-treatment 24 #2 / modulation upon carfilzomib-treatment 48 #2: biological replicate #2; for modulation upon carfilzomib-treatment 24 #3 / modulation upon carfilzomib-treatment 48 #3: biological replicate #3; for modulation upon carfilzomib-treatment 48 #1 / modulation upon carfilzomib-treatment 48 #2 / modulation upon carfilzomib-treatment 48 #3: 48 h after carfilzomib treatment (100 nM, 1 h)
Method: as §1, §2, §3, §4

[3] = 24 h after carfilzomib treatment

Sequence | biological replicates with significant up-modulation [1, 3] | modulation of peptide presentation upon carfilzomib treatment [1, 3] | modulation upon carfilzomib-treatment 24 #1 ([1]; 24 h after carfilzomib treatment (100 nM, 1 h), biological replicate #1, vs mock-treated controls) | modulation upon carfilzomib-treatment 24 #2 ([1]; 24 h after carfilzomib treatment (100 nM, 1 h), biological replicate #2, vs mock-treated controls) | modulation upon carfilzomib-treatment 24 #3 ([1]; 24 h after carfilzomib treatment (100 nM, 1 h), biological replicate #3, vs mock-treated controls) | modulation upon carfilzomib-treatment 48 #1 ([1]; 48 h after carfilzomib treatment (100 nM, 1 h), biological replicate #1, vs mock-treated controls) | modulation upon carfilzomib-treatment 48 #2 ([1]; 48 h after carfilzomib treatment (100 nM, 1 h), biological replicate #2, vs mock-treated controls) | modulation upon carfilzomib-treatment 48 #3 ([1]; 48 h after carfilzomib treatment (100 nM, 1 h), biological replicate #3, vs mock-treated controls) | modulation upon carfilzomib-treatment 24 #1 [2] | modulation upon carfilzomib-treatment 24 #2 [2] | modulation upon carfilzomib-treatment 24 #3 [2] | modulation upon carfilzomib-treatment 48 #1 [2] | modulation upon carfilzomib-treatment 48 #2 [2] | modulation upon carfilzomib-treatment 48 #3 [2]
EYGHIPSF (listed as Homo sapiens) [SEQ ID NO: 42] | 2/3 | significant up-modulation |  |  |  |  |  |  |  |  |  |  |  | 
AFIQAGIFQEF |  |  | −1 | 0 | −1 | 0 | 0 | −1 |  |  |  |  |  | 
APRHPSTNSLL |  |  |  |  |  |  |  |  | 0 | 1 | 0 | 1 | 1 | 0
SESLPVRTL |  |  |  |  |  |  |  |  | 0 | 0 | 0 | 0 | 0 | 0
SVYSPVKKK |  |  |  |  |  |  |  |  | 0 | 0 | −1 | 0 | 0 | 0
GEVAPSMFL |  |  |  |  |  |  |  |  | 0 | 0 | 0 | 0 | 0 | 0
IIFDRPLLY |  |  |  |  |  |  |  |  | 0 | 0 | 0 | 0 | 0 | −1
RVFPYSVFY |  |  |  |  |  |  |  |  | −1 | 0 | 0 | −1 | −1 | −1
SPALKRLDL |  |  |  |  |  |  |  |  | 0 | 0 | 0 | 0 | 0 | 0
KAMEAASSL |  |  |  |  |  |  |  |  | −1 | −1 | −1 | −1 | −1 | −1
RVAKTNSLR |  |  |  |  |  |  |  |  | 0 | 0 | 0 | 0 | 0 | 0
REEGTPLTL |  |  |  |  |  |  |  |  | 0 | 0 | 0 | 0 | 0 | 0
RPFHGWTSL |  |  |  |  |  |  |  |  | 0 | 0 | 0 | 0 | 0 | 0
KTEVHIRPK |  |  |  |  |  |  |  |  | 0 | 0 | 0 | 0 | 0 | 0
